Measurements published in patent publication US6117840A, “CS-1 peptidomimetics, compositions and methods of using the same” (Cytel Corporation, priority 1997, dated 2000).
Square brackets hold non-standard residues; d marks the D form. Peptide text beside a SMILES is read from it. * marks the point of attachment. PhAc = O=C(Cc1ccccc1)*

What was measured:
BALB/c mice = experiment: Adoptive transfer delayed type hypersensitivity in mice (oxazolone); type: in vivo, mouse; conditions: for swelling at challenge site (in words): 6 mg/kg/day s.c. pump for 24 hours
Experimental: An adoptive transfer delayedtype hypersensitivity murine model has been developed using splenic T cells primed to oxazolone. This model is described in Elices et al., Clin. Exp. Rheum., 11(Suppl. 8):577-580 (1993), whose procedures were followed here.
Thus, BALB/c mice were shaved on the belly and painted (50 μl on the belly and 5 μl on each paw) with three percent oxazolone in acetone/olive oil (4:1) at days zero and 1. At day 5, the mice were sacrificed, their spleens removed, and splenic T cells were obtained via nylon wool columns.
Normal saline or saline containing 25×10^6 /animal of the oxazoloneimmune T cells were separately injected into naive mice. The mic were then challenged by painting 10 μl of 2 percent oxazolone onto one ear each. All procedures were carried out under sterile conditions and in endotoxingfree buffers.
Prior to challenge or saline injection, the mice were implanted with pumps that subcutaneously administered normal saline, normal saline containing the peptide N--phenylacetyl--Leu--Asp--Phe--D--Pro--NH2 or normal saline containing a peptide with a scrambled sequence continually at 6 mg/kg/day for a 24-hour time period. The swelling diameter at the site of challenge or saline injection was measured with a microcaliper 24 hours thereafter.
An expanded study was carried out as described above except that a scrambled peptide control was not used using further inhibitor peptides o Table 1 with larger groups of mice. Statistical analyses were carried out versus injection of vehicle alone. Those results are shown below in Table 2.

[1] = test system: New Zealand white rabbits; experiment: Rabbit cardiac allograft model; type: in vivo; conditions: for Expression on Coronary Arteries: ICAM-1 / Expression on Coronary Arteries: Macrophages / Expression on Coronary Arteries: T cells / Expression on Coronary Arteries: Total Fibronectin / Expression on Coronary Arteries: VCAM-1 / Vessel Intimal Thickening: Percent of Vessels / Vessel Intimal Thickening: Severity (Percent of Vessel area) / Expression on Coronary Arteries: MHC Class II: 1 mg/kg s.c., donor heart; for Expression on Coronary Arteries: MHC Class II: 7 to 8 days; as to Expression on Coronary Arteries: ICAM-1: key: -: negative; ±: minimal; +: little; ++: moderately abundant; +++: very abundant; as to Expression on Coronary Arteries: Macrophages: key: -: negative; ±: minimal; +: little; ++: moderately abundant; +++: very abundant; as to Expression on Coronary Arteries: T cells: key: -: negative; ±: minimal; +: little; ++: moderately abundant; +++: very abundant; as to Expression on Coronary Arteries: Total Fibronectin: key: -: negative; ±: minimal; +: little; ++: moderately abundant; +++: very abundant
Description: New Zealand white female rabbits (Charles River Lab., Saint Laurent, Quebec), between 3.5 and 4 kg underwent heterotopic cardiac transplant following an experimental protocol previously described [Alonso et al., Am. J. Pathol., 87:415-442 (1977); Clausell et al., Circulation, 89:2768-2779 (1994)] and approved by the Animal Care Committee of The Hospital for Sick Children, Toronto. The animals were […] to favor an HLA-mismatch, the host rabbits were Pasteurella-free and the donors, outbred animals. Both host and donor rabbits were fed Purina 5321-0.5 percent cholesterol diet (Research Diets Inc., New Brunswick, N.J.), a strategy that has proven useful in accelerating the process of allograft arteriopathy [Alonso et al., Am. J. Pathol., 87:415-442 (1977)]. The diet was commenced four days prior to the transplant and continued in the recipient of the transplant until the completion of the experimental period.
The technique of heterotopic cardiac transplantation has been previously described [Clausell et al., Circulation, 89:2768-2779 (1994)]. Briefly, a vertical incision was performed in the anterior aspect of the neck of the recipient rabbit and the left common carotid artery and the ipsilateral external jugular vein were isolated. The cardiac allograft was placed in the neck by anastomosing the aorta end-to-side to the recipient's carotid artery and the pulmonary end-to-side to the recipient's external jugular vein, following a total period of ischemia for the donor hearts of approximately 30 minutes. Postoperative care was in compliance with the Principles of Laboratory Animal Care formulated by the Canadian National Society for Medical Research.
Beginning the day of the transplant, the animals were randomized and treated with either scrambled peptide (control group) at 1 mg/kg s.c. or the inhibitor peptide at 1 mg/kg s.c. The doses of the peptides were empirically extrapolated to the in vivo model based on preliminary in vitro studies, of Table 1. No other immunosuppression therapy was administered. The grafts were monitored daily by palpation and maintained for 7 to 8 days, a previously described endpoint that was associated with myocardial rejection (impaired cardiac contractility) and development of the allograft arteriopathy in this model [Clausell et al., Circulation, 89:2768-2779 (1994)]. A total of fourteen animals were studied in the control (n=7) and treated (n=7) groups.
The animals were sacrificed using a lethal dose of euthanol (480 mg i.v.) (MTC Pharmaceutical, Cambridge, ON), host and donor hearts were removed, and the coronary arteries were perfused with saline through the aorta, followed by light fixation by perfusion with 2 percent paraformaldehyde (Sigma, St, Louis, Mo.). […] Different sections of the hearts were either saved in 10 percent formalin (BDH Inc., Toronto, ON) for light microscopy studies or immediately frozen in O.T.C. Compound Tissue Tek (Miles Inc., Elkart, Ind.) for specific immunohistochemistry studies.
Three different paraffin-embedded tissue sections from host and donor hearts from both control and treated rabbits were stained by the Movat pentachrome method for light microscopy. Morphometric analysis was performed using a Zeiss microscope attached to a computer-generated video analysis system (Perceptics Inc., NuVision software), as described in Clausell et al., Circulation, 89:2768-2779 (1994). The number of vessels with intimal lesions were counted in all three heart sections from each animal studied and are expressed as a percentage of the total vessel number.
In the host hearts, 999 vessels in the control group and 1054 vessels in the treated group were analyzed. In the donor hearts, 827 vessels in the control group and 617 vessels in the treated group were analyzed. […]

Compound | swelling at challenge site (in words) (BALB/c mice) | Percent Inhibition (BALB/c mice; expanded study, 6 mg/kg/day, versus vehicle) | Expression on Coronary Arteries: ICAM-1 [1] | Expression on Coronary Arteries: Macrophages [1] | Expression on Coronary Arteries: T cells [1] | Expression on Coronary Arteries: Total Fibronectin [1] | Expression on Coronary Arteries: VCAM-1 [1] | Vessel Intimal Thickening: Percent of Vessels [1] | Vessel Intimal Thickening: Severity (Percent of Vessel area) [1] | Expression on Coronary Arteries: MHC Class II [1] | Baseline (rabbit own host heart) of incidence [1] | Baseline (rabbit own host heart) of severity [1]
CC(C)C[C@H](NC(=O)Cc1ccccc1)C(=O)N[C@@H](CC(=O)O)C(=O)N[C@@H](Cc1ccccc1)C(=O)N1CCC[C@@H]1C(N)=O [X L D F p phenylacetyl amide, N--phenylacetyl--Leu--Asp--Phe--D--Pro--NH2] (PhAc-LDF[dP]-NH2) | reduced thi type of CS1/VLA-4-mediated immunoinflammation | 36% | ± | ± | ± | ± | ± | 35% | 16% | ± | 12% | 12%
CC(C)C[C@H](NC(=O)[C@H](CC(=O)O)NC(=O)Cc1ccccc1)C(=O)N[C@@H](Cc1ccccc1)C(=O)N1CCC[C@@H]1C(N)=O [X L D F p phenylacetyl amide scrambled, N--phenylacetyl--Asp--Leu--Phe--D--Pro--NH2, reference compound] (PhAc-DLF[dP]-NH2) | no reduction of inflammation | – | + | + | ++ | ++ | + | 88% | 36% | ++ | 1% | 12%
